Measurements: US20220304929A1, “LIPIDS FOR DELIVERY OF CHARGED MATERIAL, FORMULATIONS THEREOF AND METHOD FOR MAKING SAME” (INTEGRATED NANOTHERAPEUTICS INC., priority 2019, published 2022)
“Also recorded” adds a separate entry of the source.

Legend:
[1] = Peptide incorporation into LNP (Peptide:Lipid ratio; BCA or CBQCA protein quantification); type: physicochemical
Experimental: (§1) Lipid concentrations were determined by measuring total cholesterol using the Cholesterol E enzymatic assay kit from Wako Chemicals USA (Richmond, Va.).
Quantification of protein/peptide was performed with the use of either the BCA Protein Assay (Pierce) or the CBQCA Protein Quantitation Kit (Invitrogen) according to the manufacturer's instructions.

[2] = LNP particle size and polydispersity by dynamic light scattering; type: physicochemical
[3] = Apparent pKa of LNP systems (TNS fluorescence assay); type: physicochemical; conditions: LNP containing ionizable lipid and FVII siRNA
Experimental: Apparent acid dissociation constants (pKa) of LNP systems were determined according to a procedure described in the literature (Jayaraman, M., et al., Maximizing the potency of siRNA lipid nanoparticles for hepatic gene silencing in vivo. Angewandte Chemie, 2012. 51(34): p. 8529-33). Briefly, 2-(p-toluidino)-6-napthalene sulfonic acid (TNS, Sigma-Aldrich, St. Louis, Mo.) and LNP were diluted in buffer (10 mM HEPES, 10 mM MES and 10 mM ammonium acetate) with pH ranges from 2.5 to 11. Final concentration of TNS or total lipid was 6 μM. Samples were then mixed and fluorescence intensity was measured (Ex/Em: 321/445 nm) using a Perkin Elmer LS55. A sigmoidal best fit analysis was applied and the pKa was measured as the pH at half-maximal fluorescence intensity.

[4] = tested on: Firefly Luciferase mRNA expression in liver; experiment: LNP luciferase mRNA expression in vivo in the liver of mice; set-up: species or system mouse; conditions: C57Bl/6 mice, 1 mg/kg mRNA i.v., liver at 4 hours post-injection
Experimental: Lipid nanoparticle (LNP) formulations containing cationic lipids of the disclosure and Luciferase mRNA were injected via a tail vein in C57Bl/6 wild-type mice at mRNA dose of 1 mg/kg and the luminescence in the liver was measured post injection. From left-to-right, the cationic lipids incorporated in the LNP-mRNA were INT-A001, INT-A002, INT-A003 and INT-A004. Untreated animals were injected with phosphate buffered saline (PBS).
To assess in vivo activity, LNPs containing Firefly Luciferase mRNA were prepared as described in Example 2. LNPs were diluted with PBS and administered at 1 mg/kg intravenously via tail vein in 6 to 8 weeks old female C57Bl/6 mice (Charles River Laboratories, Wilmington, Mass.). At 4 hours post-injection, animals were euthanized and the livers were collected. Approximately 100 mg of liver was homogenized in 0.5 mL Glo Lysis Buffer (Promega). The homogenate was further diluted 1:4 with the lysis buffer and then 50 μL of diluted homogenate was added to 50 μL Steady-Glo reagent (Promega). The level of luminescence was determined using a Synergy LX plate reader (BioTek).

[5] = RNA or antisense oligonucleotide encapsulation efficiency (Quant-iT Ribogreen RNA / Oligreen ssDNA assays); type: physicochemical
Experimental: The RNA or antisense oligonucleotide encapsulation efficiency was determined using the Quant-iT Ribogreen RNA or Oligreen ssDNA Assays, respectively (Life Technologies, Burlington, ON). Briefly, LNP was incubated at 37° C. for 10 min in the presence or absence of 1% Triton X-100 (Sigma-Aldrich, St. Louis, Mo.) followed by the addition of the Ribogreen or Oligreen reagent. The fluorescence intensity (Ex/Em: 480/520 nm) was determined and samples treated with Triton X-100 represent total nucleic acid while untreated samples represent unencapsulated nucleic acid.
To prepare the LNPs, ionizable lipid, DSPC, cholesterol and PEG-DMPE were dissolved in ethanol. The siRNA was dissolved in pH 4.0-6.2 buffer composed of 10-50 mM acetate, succinate or citrate. In select cases, 10-50 mM 4-(2-Hydroxyethyl)piperazine-1-ethanesulfonic acid (HEPES) or 2-(N-Morpholino)ethanesulfonic acid (MES) buffer was used. LNP were prepared by rapidly mixing the lipid components in ethanol (in molar ratio of 50/10/38.5/1.5 of […]) with nucleic acids in aqueous buffer at a volumetric flow rate ratio of 1:3 (ethanol to aqueous, combined flow rate >12 mL/min) at room temperature. Typically, siRNA/lipids ratios were targeted for 0.056 wt/μmol. The product was then dialyzed against 1× phosphate-buffered saline (PBS) at pH 7.4 for 24 hours to remove residual ethanol and to raise the pH. PBS was refreshed after 4 hours.

[6] = tested on: HepG2 cells; experiment: LNP luciferase mRNA expression in cultured HepG2 cells; type: cell-based; conditions: 0.125-1 μg/mL luciferase mRNA, 16-24 hr
Experimental: Cells were treated with LNP formulations containing ionizable lipids of the disclosure and luciferase mRNA at concentrations of 0.125-1 μg/mL. The level of luminescence was measured post treatment. From left-to-right, the ionizable lipids incorporated in the LNPs were INT-A001 (white bar), INT-A002 (dotted bar), INT-A003 (black bar) and INT-A004 (gray bar).
The activity of the ionizable lipids in vitro was evaluated in cultured HepG2 cells. LNPs containing Firefly Luciferase mRNA were prepared as described in Example 2. LNPs were diluted to 0.125-1 μg/mL with DMEM media containing 10% FBS and incubated with HepG2 cells for 16-24 hr. Cells were then lysed with Glo-Lysis Buffer (Promega). Equal amounts of Steady-Glo reagent (Promega) was added to each sample and the level of luminescence was determined using a Synergy LX plate reader (BioTek).

[7] = tested on: factor VII (FVII); experiment: LNP-siRNA activity in the mouse Factor VII model; type: in vivo; conditions: C57Bl/6 mice, 24 hours post-injection; for Activity in mediating FVII gene-silencing (residual serum FVII levels): i.v. tail vein, 0.03-0.3 mg/kg siRNA
Experimental: Lipid nanoparticle (LNP) formulations containing cationic lipids of the disclosure and FVII siRNA were injected via a tail vein in C57Bl/6 wild-type mice and the levels of FVII in plasma was measured post injection. The mice were injected with LNP-siRNA at doses of 0.03 (left bar), 0.1 (middle bar) and 0.3 mg/kg (right bar). The cationic lipids incorporated in the LNPs were INT-A001, INT-A002, INT-A003 and INT-A007.
LNPs prepared as described in Example 2 containing siRNA against factor VII (FVII) were diluted with PBS such that injection volumes were maintained at 10 mL/kg body weight and administered (based on siRNA concentration) intravenously via tail vein in 6 to 8 weeks old female C57Bl/6 mice (Charles River Laboratories, Wilmington, Mass.). At 24 hours post-injection, animals were euthanized and blood was collected via intracardiac sampling. Blood samples were allowed to coagulate at 4° C. overnight and the serum was separated followed by centrifugation for 15 min at 12,000 rpm. The serum FVII levels were determined using the Biophen VII chromogenic assay (Aniara, Mason, Ohio) according to the protocol of the manufacturer.

[8] = HA incorporation into LNP (HA:Lipid ratio); type: physicochemical; conditions: LNP containing ionizable lipid and HA (8-15 kDa)
Experimental: as §1
Hyaluronic acid was used as an example of anionic cargos. LNPs were prepared as described in Example 2 containing HA with a molecular weight of 8-15 kDa.

[9] = LNP containing ionizable lipid and a 2.0 kDa basic peptide (net charge +4)
[10] = LNP containing ionizable lipid and Luciferase mRNA
[11] = LNP containing ionizable lipid and antisense oligonucleotide
[12] = LNP containing ionizable lipid and siRNA
[13] = LNP containing ionizable lipid and a 4.2 kDa acidic peptide (net charge -3)
[14] = LNP containing ionizable lipid and a 2.0 kDa acidic peptide (net charge -3)
[15] = LNP containing ionizable lipid and HA (8-15 kDa)

| Peptide:Lipid [1, 9] [wt/wt] | Particle Diameter [2, 9] [nm] | Polydispersity index (PDI) [2, 9] | Apparent pKa [3] | Encapsulation Efficiency [5, 10] [%] | Encapsulation Efficiency [5, 11] [%] | Encapsulation Efficiency [5, 12] [%] | Peptide:Lipid [1, 13] [wt/wt] | Particle Diameter [2, 10] [nm] | Polydispersity index (PDI) [2, 10] | Particle Diameter [2, 13] [nm] | Polydispersity index (PDI) [2, 13] | Particle Diameter [2, 11] [nm] | Polydispersity index (PDI) [2, 11] | Particle Diameter [2, 12] [nm] | Polydispersity index (PDI) [2, 12] | Peptide:Lipid [1, 14] [wt/wt] | SMILES | Activity in delivering mRNA and inducing mRNA expression in vivo (liver luminescence) [4] | Activity in delivering mRNA and inducing its expression in vitro (luminescence) [6] | Activity in mediating FVII gene-silencing (residual serum FVII levels) [7] | also measured |
| --- | --- | --- | --- | --- | --- | --- | --- | --- | --- | --- | --- | --- | --- | --- | --- | --- | --- | --- | --- | --- | --- |
| 0.121 | 39 | 0.057 | – | – | – | – | – | – | – | – | – | – | – | – | – | – | CCCCCCCCC(CCCCCC)C(=O)O[C@@H](CCCCCCCC)[C@@H](CCCCCCCC(=O)O)OC(=O)C(CCCCCC)CCCCCCCC (mixture of isomers) [INT-A009, (±)-syn-9,10-Bis(2-hexyldecanoyloxy)stearic Acid] | – | – | – | – |
| – | – | – | 6.3 | 96 | 84 | 89 | 0.161 | 43 | 0.064 | 48 | 0.021 | 44 | 0.103 | 50 | 0.059 | – | CCCCC/C=C\C/C=C\CCCCCCCC(=O)O[C@@H](CCCCCCCC)[C@@H](CCCCCCCC(=O)OCCN(C)C)OC(=O)CCCCCCC/C=C\C/C=C\CCCCC (racemic) [INT-A001, 2-(Dimethylamino)ethyl (±)-syn-9,10-dilinoleoxystearate] | can effectively deliver mRNA | can effectively deliver mRNA | active in mediating gene-silencing | – |
| – | – | – | – | 99 | 89 | 92 | 0.160 | 49 | 0.050 | 76 | 0.031 | 54 | 0.036 | 55 | 0.043 | 0.074 | CCCCC/C=C\C/C=C\CCCCCCCC(=O)O[C@@H](CCCCCCCC)[C@@H](CCCCCCCC(=O)OCCCN(C)C)OC(=O)CCCCCCC/C=C\C/C=C\CCCCC (racemic) [INT-A003, 3-(Dimethylamino)propyl (±)-syn-9,10-dilinoleoxystearate] | can effectively deliver mRNA | can effectively deliver mRNA; also recorded: most active | active in mediating gene-silencing | HA:Lipid [8]: 0.094 wt/wt; Particle Diameter [2, 15]: 64 nm; Polydispersity index (PDI) [2, 15]: 0.035; Particle Diameter [2, 14]: 142 nm; Polydispersity index (PDI) [2, 14]: 0.025 |
| – | – | – | 5.8 | 96 | 88 | 61 | 0.158 | 42 | 0.090 | 40 | 0.034 | 45 | 0.065 | 58 | 0.024 | 0.073 | CCCCC/C=C\C/C=C\CCCCCCCC(=O)O[C@@H](CCCCCCCC)[C@@H](CCCCCCCC(=O)OCCN(CC)CC)OC(=O)CCCCCCC/C=C\C/C=C\CCCCC (racemic) [INT-A004, 2-(Diethylamino)ethyl (±)-syn-9,10-dilinoleoxystearate] | can effectively deliver mRNA | can effectively deliver mRNA | – | Particle Diameter [2, 14]: 59 nm; Polydispersity index (PDI) [2, 14]: 0.051 |
| 0.104 | 39 | 0.058 | – | – | – | – | – | – | – | – | – | – | – | – | – | – | CCCCC/C=C\C/C=C\CCCCCCCC(=O)O[C@@H](CCCCCCCC)[C@@H](CCCCCCCC(=O)O)OC(=O)CCCCCCC/C=C\C/C=C\CCCCC (racemic) [INT-A008, (±)-syn-9,10-Dilinoleoxystearic Acid] | – | – | – | – |
| – | – | – | – | 99 | 92 | 97 | 0.157 | 47 | 0.053 | 62 | 0.015 | 49 | 0.096 | 52 | 0.063 | – | CCCCC/C=C\C/C=C\CCCCCCCC(=O)O[C@@H](CCCCCCCC)[C@@H](CCCCCCCC(=O)OCCCN(CC)CC)OC(=O)CCCCCCC/C=C\C/C=C\CCCCC (racemic) [INT-A002, 3-(Diethylamino)propyl (±)-syn-9,10-dilinoleoxystearate] | – | can effectively deliver mRNA | active in mediating gene-silencing; also recorded: most active | Activity in delivering mRNA and inducing mRNA expression in vivo (liver luminescence) ([4]; 1 mg/kg): can effectively deliver mRNA; also recorded: most active; HA:Lipid [8]: 0.093 wt/wt; ED 50 (effective dose to achieve 50% gene-silencing) ([7]; i.v. LNP FVII siRNA, estimated): less than 0.1 mg/kg; Particle Diameter [2, 15]: 83 nm; Polydispersity index (PDI) [2, 15]: 0.027 |
